The values below come from US9505781B2, “Compositions comprising thienopyrimidine and thienopyridine compounds and methods of use thereof” (The Regents of the University of Michigan, priority 2013, dated 2016).

This test concerns the target T1, menin-MLL interaction (Homo sapiens, UniProt O00255).
T1 sequence (O00255 1-610): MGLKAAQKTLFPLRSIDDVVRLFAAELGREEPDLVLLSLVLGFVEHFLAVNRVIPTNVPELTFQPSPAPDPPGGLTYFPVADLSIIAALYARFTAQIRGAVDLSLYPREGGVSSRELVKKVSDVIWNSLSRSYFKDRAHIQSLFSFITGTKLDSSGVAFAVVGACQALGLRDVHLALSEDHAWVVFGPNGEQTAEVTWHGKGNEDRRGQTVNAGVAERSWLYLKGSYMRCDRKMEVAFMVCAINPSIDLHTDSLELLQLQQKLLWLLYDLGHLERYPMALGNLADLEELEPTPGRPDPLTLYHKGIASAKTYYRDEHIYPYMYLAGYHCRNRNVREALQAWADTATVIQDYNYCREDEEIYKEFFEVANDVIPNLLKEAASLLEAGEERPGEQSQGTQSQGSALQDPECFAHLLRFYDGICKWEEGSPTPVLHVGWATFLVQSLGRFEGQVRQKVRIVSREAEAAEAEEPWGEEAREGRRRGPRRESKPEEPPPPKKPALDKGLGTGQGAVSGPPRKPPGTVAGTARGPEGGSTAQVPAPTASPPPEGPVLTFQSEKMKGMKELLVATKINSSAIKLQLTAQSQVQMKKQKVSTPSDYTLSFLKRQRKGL
As to the kind of experiment: biochemical.

pIC50: −log10 of the molar value.

As a reminder, the pIC50 is the negative decadic logarithm of the IC50, by convention in mol/L.

From the text: Compounds that inhibit the interaction decrease the fluorescence anisotropy which is being used as a read-out for compound screening and for IC50 determination.

As to `N#Cc1cc2cc(CN3CCC(Nc4c(COCCC5CCCC5)cnc5sc(CC(F)(F)F)cc45)CC3)ccc2[nH]1` [Compound 418], the pIC50 was 5.70 to 6.30.

The molecule `O=C(Cc1ccccc1Cl)N1CCN(c2ncnc3sc(CC(F)(F)F)cc23)CC1` [Compound 70] gave a pIC50 of 6.30 to 7.00.

Consider `N#Cc1cc2c(Cl)c(CN3CCC(Nc4ncnc5sc(CC(F)(F)F)cc45)CC3)ccc2n1Cc1cn[nH]c1` [Compound 381], for which the pIC50 is greater than 7.00.

Molecule `NS(=O)(=O)Cc1cccc(CC(=O)N2CCN(c3ncnc4sc(CC(F)(F)F)cc34)CC2)c1` [Compound 96] gave a pIC50 of 5.70 to 6.30.

`Nc1ccc(CC(=O)N2CCN(c3ncnc4sc(CC(F)(F)F)cc34)CC2)cc1` [Compound 69]: the pIC50 was 6.30 to 7.00.

As for `FC(F)(F)Cc1cc2c(NCC3CCN(Cc4ccc(C(F)(F)F)cc4Cl)CC3)ncnc2s1` [Compound 268], the pIC50 is 5.70 to 6.30.

Molecule `Cc1c(CN2CCC(Nc3ncnc4sc(CC(F)(F)F)cc34)CC2)ccc2c1cc(C#N)n2CC(O)(CO)CCn1ccnn1` (centres unmarked) [Compound 373] gave a pIC50 greater than 7.00.

The molecule `NS(=O)(=O)c1ccc(CN2CCC(CNc3ncnc4sc(CC(F)(F)F)cc34)CC2)cc1` [Compound 262] had a pIC50 of 6.30 to 7.00.

`FC(F)(F)Cc1cc2c(NC3CCN(Cc4cccs4)CC3)ncnc2s1` [Compound 132]: the pIC50 is 6.30 to 7.00.

`FC(F)(F)Cc1cc2c(NC3CCN(Cc4ccccc4C(F)(F)F)CC3)ncnc2s1` [Compound 148] had a pIC50 of 5.70 to 6.30.

As to `CC(C)c1cc2c(N3CCN(c4nnc(C(F)(F)F)s4)CC3)ncnc2s1` [Compound 32], the pIC50 was 5.70 to 6.30.

With `FC(F)(F)Cc1cc2c(NC3CCN(Cc4ccsc4)CC3)ncnc2s1` [Compound 133], the pIC50 was 6.30 to 7.00.

Turning to `Oc1cccc(CN2CCC(Nc3ncnc4sc(CC(F)(F)F)cc34)CC2)c1` [Compound 109], the pIC50 is 6.30 to 7.00.

Regarding `Cc1cc(Cn2c(C#N)cc3c(C)c(CN4CCC(Nc5ncnc6sc(CC(F)(F)F)cc56)CC4)ccc32)[nH]n1` [Compound 365], the pIC50 was greater than 7.00.

For the molecule `CS(=O)(=O)N(CC#N)c1ccc(CC(=O)N2CCN(C3=NC=NC4SC(CC(F)(F)F)=CC34)CC2)c(Cl)c1` (centres unmarked) [Compound 63], the pIC50 is greater than 7.00.

Molecule `OCCCN(c1ncnc2sc(CC(F)(F)F)cc12)C1CCN(Cc2ccccc2)CC1` [Compound 127] showed a pIC50 of 6.30 to 7.00.

`Cc1c(CN2CCC(Nc3ncnc4sc(CC(F)(F)F)cc34)CC2)ccc2c1cc(C#N)n2CCN1CCN(C(=O)CCc2ccccc2)CC1` [Compound 341] showed a pIC50 greater than 7.00.

Molecule `Cc1c(CN2CCC(Nc3ncnc4sc(CC(F)(F)F)cc34)CC2)ccc2c1cc(C#N)n2CCN1CCN(C(=O)CC2CCCCC2)CC1` [Compound 343] had a pIC50 greater than 7.00.

`N#Cc1cc2c(F)c(CN3CCC(Nc4ncnc5sc(CC(F)(F)F)cc45)CC3)ccc2n1CC(N)=O` [Compound 205] showed a pIC50 greater than 7.00.

`Fc1ccc(CN2CCC(Nc3ncnc4sc(CC(F)(F)F)cc34)CC2)c(F)c1` [Compound 122] showed a pIC50 of 6.30 to 7.00.

Molecule `N#Cc1cc2c(C(F)F)c(CN3CCC(Nc4ncnc5sc(CC(F)(F)F)cc45)CC3)ccc2n1CC(N)=O` [Compound 310] had a pIC50 greater than 7.00.

For the molecule `Cc1c(CN2CCC(Nc3ncnc4sc(CC(F)(F)F)cc34)CC2)ccc2c1cc(C#N)n2CC(N)=O` [Compound 301], the pIC50 was greater than 7.00.

Molecule `FC(F)Oc1ccc(CN2CCC(Nc3ncnc4sc(CC(F)(F)F)cc34)CC2)cc1` [Compound 141] gave a pIC50 of 5.70 to 6.30.

Consider `N#Cc1cc2cc(CN3CCC(Nc4c(CO)cnc5sc(CC(F)(F)F)cc45)CC3)ccc2[nH]1` [Compound 278], for which the pIC50 was greater than 7.00.

Regarding `N#Cc1cc2cc(CN3CCC(Nc4ncnc5sc(CC(F)(F)F)cc45)CC3)ccc2n1CC(O)(CO)COCC1CCCCC1` (centres unmarked) [Compound 317], the pIC50 is greater than 7.00.

Turning to `N#Cc1cc2cc(CN3CCC(Nc4ncnc5sc(CC(F)(F)F)cc45)CC3)c(O)cc2[nH]1` [Compound 182, 6-hydroxy-5-((4-((6-(2,2,2-trifluoroethyl)thieno[2,3-d]pyrimidin-4-yl)amino)pipendin-1-yl)methyl)-1H-indole-2-carbonitrile], the pIC50 is greater than 7.00.

Molecule `OC(c1cc2c(N3CCN(c4nnc(C(F)(F)F)s4)CC3)ncnc2s1)C(F)(F)F` (centres unmarked) [Compound 23] showed a pIC50 of 5.70 to 6.30.

In turn, `CC1(C)CN=C(N2CCN(c3ncnc4sc(CCCCc5ccccc5)cc34)CC2)S1` [Compound 40] had a pIC50 of 5.70 to 6.30.

As for `N#Cc1cc2cc(CN3CCC(Nc4ncnc5sc(CC(F)(F)F)cc45)CC3)c(O)cc2n1Cc1cn[nH]c1` [Compound 382], the pIC50 was greater than 7.00.

Turning to `N#Cc1cc2cc(CN3CCC(Nc4ncnc5sc(CC(F)(F)F)cc45)CC3)cc(F)c2n1CC(N)=O` [Compound 246], the pIC50 was 6.30 to 7.00.

`COc1cc2c(cc(C#N)n2CCO)c(C)c1CN1CCC(Nc2ncnc3sc(CC(F)(F)F)cc23)CC1` [Compound 386] showed a pIC50 greater than 7.00.

`N#Cc1cc2cc(CN3CCC(Nc4ncnc5sc(CC(F)(F)F)cc45)CC3)ccc2n1CCCC(F)(F)F` [Compound 223] had a pIC50 greater than 7.00.

As for `COCCOCC(O)(CO)Cn1c(C#N)cc2c(C)c(CN3CCC(Nc4ncnc5sc(CC(F)(F)F)cc45)CC3)ccc21` (centres unmarked) [Compound 315], the pIC50 was greater than 7.00.

The molecule `COc1c(CN2CCC(Nc3ncnc4sc(CC(F)(F)F)cc34)CC2)ccc2c1cc(C#N)n2CC(N)=O` [Compound 193] had a pIC50 greater than 7.00.

`CC(C(N)=O)n1c(C#N)cc2cc(CN3CCC(Nc4ncnc5sc(CC(F)(F)F)cc45)CC3)ccc21` (centres unmarked) [Compound 247] showed a pIC50 of 6.30 to 7.00.

On to `N#Cc1cc2cc(CN3CCC(Nc4ncnc5sc(CC(F)(F)F)cc45)C(NCc4cccc(F)c4)C3)ccc2[nH]1` (centres unmarked) [Compound 289], for which the pIC50 is greater than 7.00.

`Cc1c(CN2CCC(Nc3ncnc4sc(CC(F)(F)F)cc34)CC2)ccc2c1cc(C#N)n2CCN1CCNC(=O)C1` [Compound 355] gave a pIC50 greater than 7.00.

For the molecule `NS(=O)(=O)c1ccc(CN2CCC(Nc3ncnc4sc(CC(F)(F)F)cc34)CC2)cc1` [Compound 156], the pIC50 is 5.70 to 6.30.

For `CN1CCN(Cc2ccc(CN3CCC(CNc4ncnc5sc(CC(F)(F)F)cc45)CC3)cc2)CC1` [Compound 267], the pIC50 was 5.70 to 6.30.

With `N#Cc1cc2cc(CN3CCC(Nc4ncnc5sc(CC(F)(F)F)cc45)CC3)ccc2n1CCO` [Compound 179], the pIC50 is greater than 7.00.

`N#Cc1cc2c(CO)c(CN3CCC(Nc4ncnc5sc(CC(F)(F)F)cc45)CC3)ccc2n1CC(N)=O` [Compound 325] had a pIC50 greater than 7.00.

`Cc1c(CN2CCC(Nc3ncnc4sc(CC(F)(F)F)cc34)CC2)ccc2c1cc(C#N)n2CC(O)(CO)CC1CCCCC1` (centres unmarked) [Compound 348] showed a pIC50 greater than 7.00.

On to `NS(=O)(=O)Cc1ccc(CC(=O)N2CCN(c3ncnc4sc(CC(F)(F)F)cc34)CC2)cc1` [Compound 44, (4-(2-oxo-2-(4-(6-(2,2,2-trifluoroethyl)thieno[2,3-d]pyrimidin-4-yl)piperazin-1-yl)ethyl)phenyl)methanesulfonamide], for which the pIC50 is greater than 7.00.

Take `FC(F)(F)Cc1cc2c(NCC3CCN(Cc4ccccc4)CC3)ncnc2s1` [Compound 277]: the pIC50 was 5.70 to 6.30.

`CCCc1cc2c(NC3CCN(Cc4ccc(C)cc4)CC3)ncnc2s1` [Compound 151] gave a pIC50 of 5.70 to 6.30.

In turn, `COCCOCCn1nc(Cn2c(C#N)cc3cc(CN4CCC(Nc5ncnc6sc(CC(F)(F)F)cc56)CC4)ccc32)cc1C` [Compound 411] gave a pIC50 of 6.30 to 7.00.

Molecule `COCC(O)Cn1c(C#N)cc2cc(CN3CCC(Nc4ncnc5sc(CC(F)(F)F)cc45)CC3)ccc21` (centres unmarked) [Compound 237] had a negative-log IC50 (pIC50) of 6.30 to 7.00.

For `Cc1c(CN2CCC(Nc3ncnc4sc(CC(F)(F)F)cc34)CC2)ncc2[nH]c(C#N)cc12` [Compound 380], the negative logarithm of the IC50 (pIC50) was greater than 7.00.

Molecule `FC(F)(F)Cc1cc2c(NC3CCN(Cc4ccc(N5CCOCC5)cc4Cl)CC3)ncnc2s1` [Compound 115] gave a pIC50 of 6.30 to 7.00.

In turn, `CC(=O)NCCS(=O)(=O)Nc1ccc(CC(=O)N2CCN(c3ncnc4sc(CC(F)(F)F)cc34)CC2)cc1` [Compound 57] showed a negative-log IC50 (pIC50) greater than 7.00.

As to `Cc1c(CC(F)(F)F)sc2ncnc(NC3CCN(Cc4ccccc4)CC3)c12` [Compound 126], the pIC50 is 6.30 to 7.00.

On to `Cn1cc(S(=O)(=O)Nc2ccc(CC(=O)N3CCN(c4ncnc5sc(CC(F)(F)F)cc45)CC3)cc2)cn1` [Compound 83], for which the negative-log IC50 (pIC50) is 6.30 to 7.00.

Take `FC(F)(F)Cc1cc2c(NC3CCN(Cc4c[nH]c5ccccc45)CC3)ncnc2s1` [Compound 243]: the pIC50 was 6.30 to 7.00.

`CC1(C)CN=C(N2CCN(c3ncnc4sc(CCCc5ccccc5)cc34)CC2)S1` [Compound 37] gave a pIC50 of 5.70 to 6.30.

Consider `O=C(C1CCCCC1)N1CCN(c2ncnc3sc(CC(F)(F)F)cc23)CC1` [Compound 87], for which the pIC50 was 5.70 to 6.30.

Take `Cc1c(CN2CCC(Nc3ncnc4sc(CC(F)(F)F)cc34)CC2)ccc2c1cc(C#N)n2CCN1CCCCC1` [Compound 329]: the pIC50 is greater than 7.00.

Regarding `FC(F)(F)Cc1cc2c(N3CCN(c4nnc(CC5CCCC5)s4)CC3)ncnc2s1` [Compound 19], the pIC50 was 5.70 to 6.30.

In the case of `COc1ccc(CN2CCC(CNc3ncnc4sc(CC(F)(F)F)cc34)CC2)cc1` [Compound 273], the pIC50 is 5.70 to 6.30.

For `N#Cc1cc2cc(CN3CCC(Nc4ncnc5sc(CC(F)(F)F)cc45)CC3)ccc2n1CCN` [Compound 186], the pIC50 is greater than 7.00.
